Assay results as given in patent US10774064B2 (Cadent Therapeutics, Inc., priority 2016, dated 2020).

Biological target: T1, small-conductance Ca2+-activated K+ channels (SK channels, subtype 2) (Homo sapiens, UniProt Q9H2S1)
T1 construct: expressed in transfected cells; host or cells: HEK293
Assay: whole-cell patch-clamp of ionic current through SK2 channels in HEK293 cells (SC100)
Format: cell-based
Details: whole-cell patch-clamp, HEK293 cells expressing SK2 channels; concentration that increases the basal current by 100%
Summary of the method: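 SC100, the concentration doubling basal current (a 100% increase), was taken from SK2 currents recorded by whole-cell patch-clamp in SK2-expressing HEK293 cells.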

SC100 (μM)	SC100	SMILES
++ (++ means 200 nM-1000 nM)	–	Cc1cc(C)n(-c2nc(NC3CCC(F)(F)CC3)cc(N3CCOC(C#N)C3)n2)n1 (centres unmarked) [IN10971-081-P1, 4-(6-((4,4-difluorocyclohexyl)amino)-2-(3,5-dimethyl-1H-pyrazol-1-yl)pyrimidin-4-yl) morpholine-2-carbonitrile]
+ (+ means >1 uM)	–	Cc1ccc(-c2nc(NC3CCC(F)(F)CC3)cc(C(C)O)n2)o1 (centres unmarked) [IN10971-088-P1, 1-(6-((4,4-difluorocyclohexyl)amino)-2-(5-methylfuran-2-yl)pyrimidin-4-yl) ethan-1-ol]
+ (+ means >1 uM)	–	Cc1cc(C)n(-c2nc(C(C)O)cc(N(C)C3CCCCC3)n2)n1 (centres unmarked) [IN10973-004-P1]
+ (+ means >1 uM)	–	Cc1cc(C)n(-c2nc(NC3CCCC(C(F)(F)F)C3)cc(C(C)O)n2)n1 (centres unmarked) [IN10973-005-P1]
+ (+ means >1 uM)	–	Cc1cc(C)n(-c2nc(NC3CCCCC3)cc(C(C)O)n2)n1 (centres unmarked) [IN10973-008-P1]
–	1 µM	COC(=O)N1CCC(Oc2cc(NC3CCC(F)(F)CC3)nc(-c3nc(C)cs3)n2)C1 (centres unmarked) [IN10973-025-P1]
+ (+ means >1 uM)	–	Cc1csc(-c2nc(NC3CCC(F)(F)CC3)cc(C(C)N3CCOCC3)n2)n1 (centres unmarked) [IN10973-028-P1, N-(4,4-difluorocyclohexyl)-2-(4-methylthiazol-2-yl)-6-(1-morpholinoethyl)pyrimidin-4-amine]
+ (+ means >1 uM)	–	FC1(F)CCC(Nc2cc(N3CCOCC3)nc(-n3cccn3)n2)CC1 [IN10973-038-P1, N-(4,4-difluorocyclohexyl)-6-morpholino-2-(1H-pyrazol-1-yl)pyrimidin-4-amine]
+ (+ means >1 uM)	–	Cc1ccn(-c2nc(NC3CCC(F)(F)CC3)cc(S(C)(=O)=O)n2)n1 [IN10973-041-P1]
+ (+ means >1 uM)	–	Cc1csc(-c2nc(NC3CCC(F)(F)CC3)cc(C(C)S(C)(=O)=O)n2)n1 (centres unmarked) [IN10973-053-P1, N-(4,4-difluorocyclohexyl)-6-(1-(methylsulfonyl)ethyl)-2-(4-methylthiazol-2-yl)pyrimidin-4-amine]
+ (+ means >1 uM)	–	Cc1ccn(-c2nc(NC3CCC(F)(F)CC3)cc(C(C)S(C)(=O)=O)n2)n1 (centres unmarked) [IN10973-060-P1, N-(4,4-difluorocyclohexyl)-2-(3-methyl-1H-pyrazol-1-yl)-6-(1-(methylsulfonyl)ethyl)pyrimidin-4-amine]
+ (+ means >1 uM)	–	COC(C)c1cc(NC2CCC(F)(F)CC2)nc(-n2ccc(C)n2)n1 (centres unmarked) [IN10973-083-P1, N-(4,4-difluorocyclohexyl)-6-(1-methoxyethyl)-2-(3-methyl-1H-pyrazol-1-yl)pyrimidin-4-amine]
+ (+ means >1 uM)	–	Cc1ccn(-c2cc(NC3CCC(F)(F)CC3)cc(N3CCOCC3)n2)n1 [IN10973-098-P1, N-(4,4-difluorocyclohexyl)-2-(3-methyl-1H-pyrazol-1-yl)-6-morpholinopyridin-4-amine]
+ (+ means >1 uM)	–	Cc1csc(-c2nc(NC3(C)CCCCC3)cc(N3CCOCC3)n2)n1 [IN10973-099-P1]
++ (++ means 200 nM-1000 nM)	–	Cc1cc(C)n(-c2nc(NC3CCC(F)(F)CC3)cc(N3CCOC(COC(F)F)C3)n2)n1 (centres unmarked) [IN10984-022-P1]
+ (+ means >1 uM)	–	Cc1ccn(-c2nc(NC3CCC(F)(F)CC3)cc(N(C)C3CCOC3)n2)n1 (centres unmarked) [IN10984-043-P1]
+ (+ means >1 uM)	–	Cc1ccn(-c2nc(NC3CCC(F)(F)CC3)nc(N3CCOCC3)n2)n1 [IN10984-079-P1, N-(4,4-difluorocyclohexyl)-4-(3-methyl-1H-pyrazol-1-yl)-6-morpholino-1,3,5-triazin-2-amine]
+ (+ means >1 uM)	–	Cc1cc(C)n(-c2nc(NC3CCC(F)(F)CC3)cc(C(O)c3ccccc3)n2)n1 (centres unmarked) [IN10987-030-P1]
+ (+ means >1 uM)	–	Cc1ccn(-c2nc(NC3CCC(F)(F)CC3)cc(C(O)c3ccccc3)n2)n1 (centres unmarked) [IN10987-039-P1]
+ (+ means >1 uM)	–	Cc1csc(-c2nc(NC3CCC(F)(F)CC3)cc(N3C[C@@H]4C[C@H]3CN4)n2)n1 [IN10987-050-P1]
+ (+ means >1 uM)	–	Cc1cc(C)n(-c2nc(NC3CCC(F)(F)CC3)cc(C(C)N3CCOCC3)n2)n1 (centres unmarked) [IN10987-055-P1, N-(4,4-difluorocyclohexyl)-2-(3,5-dimethyl-1H-pyrazol-1-yl)-6-(1-morpholinoethyl)pyrimidin-4-amine]
++ (++ means 200 nM-1000 nM)	–	Cc1csc(-c2nc(NC3CCC(F)(F)CC3)cc(N3CC4CC3CN4C)n2)n1 (centres unmarked) [IN10987-056-P1]
+ (+ means >1 uM)	–	Cc1cc(C)n(-c2nc(OC3CCC(F)(F)CC3)cc(N3CCOCC3)n2)n1 [IN10991-021-P1, 4-(6-((4,4-difluorocyclohexyl)oxy)-2-(3,5-dimethyl-1H-pyrazol-1-yl)pyrimidin-4-yl)morpholine]
++ (++ means 200 nM-1000 nM)	–	Cc1cc(C)n(-c2cc(N3CCOCC3)cc(NC3CCC(F)(F)CC3)n2)n1 [IN10991-044-P1, N-(4,4-difluorocyclohexyl)-6-(3,5-dimethyl-1H-pyrazol-1-yl)-4-morpholinopyridin-2-amine]

SC100 (μM)	SC100	SMILES
+ (+ means >1 uM)	–	Cc1cc(C)n(-c2cc(NC3CCC(F)(F)CC3)cc(N3CCOCC3)n2)n1 [IN10991-065-P1, N-(4,4-difluorocyclohexyl)-2-(3,5-dimethyl-1H-pyrazol-1-yl)-6-morpholinopyridin-4-amine]
+ (+ means >1 uM)	–	Cc1cc(C)n(-c2cc(NC3CCC(F)(F)CC3)nc(N3CCOCC3)c2)n1 [IN10991-067-P1, N-(4,4-difluorocyclohexyl)-4-(3,5-dimethyl-1H-pyrazol-1-yl)-6-morpholinopyridin-2-amine]
++ (++ means 200 nM-1000 nM)	–	Cc1ccn(-c2cc(CN3CCOC3=O)cc(NC3CCC(F)(F)CC3)n2)n1 [IN10991-091-P1]
+ (+ means >1 uM)	–	Fc1cnn(-c2nc(NC3CCC(F)(F)CC3)cc(N3CCOCC3)n2)c1 [IN11030-013-P1, N-(4,4-difluorocyclohexyl)-2-(4-fluoro-1H-pyrazol-1-yl)-6-morpholinopyrimidin-4-amine]
+ (+ means >1 uM)	–	FC1(F)CCC(Nc2cc(N3CCOCC3)nc(-c3ccc[nH]3)n2)CC1 [IN11030-023-P1, N-(4,4-difluorocyclohexyl)-6-morpholino-2-(1H-pyrrol-2-yl)pyrimidin-4-amine]
+++ (+++ means <200 nM)	–	Cc1csc(-c2nc(NC3CCC(F)(F)CC3)cc(N3CC(F)(F)OC(F)(F)C3)n2)n1 [IN11030-032-P1]
++ (++ means 200 nM-1000 nM)	–	Cc1cc(C)n(-c2nc(NC3CCC(F)(F)CC3)cc(N3CC(F)(F)OC(F)(F)C3)n2)n1 [IN11030-035-P1]
++ (++ means 200 nM-1000 nM)	–	Cc1ccn(-c2nc(NC3CCC(F)(F)CC3)cc(N3CC(F)(F)OC(F)(F)C3)n2)n1 [IN11030-044-P1]
+ (+ means >1 uM)	–	CC(=O)c1cc(NC2CCC(F)(F)CC2)nc(-c2nc(C)cs2)n1 [IN11030-054-P1, 1-(6-((4,4-difluorocyclohexyl)amino)-2-(4-methylthiazol-2-yl)pyrimidin-4-yl) ethan-1-one]
++ (++ means 200 nM-1000 nM)	–	COc1cccc2c(NC3CCC(F)(F)CC3)nc(-c3nc(C)cs3)nc12 [IN11030-081-P1, N-(4,4-difluorocyclohexyl)-8-methoxy-2-(4-methylthiazol-2-yl) quinazolin-4-amine]
++ (++ means 200 nM-1000 nM)	–	Cc1csc(-c2nc(NC3CCC(F)(F)CC3)cc(C(C)(C)O)n2)n1 [IN11030-083-P1, 2-(6-((4,4-difluorocyclohexyl)amino)-2-(4-methylthiazol-2-yl)pyrimidin-4-yl) propan-2-ol]
+ (+ means >1 uM)	–	Cc1ccn(-c2nc(NC3CCC(F)(F)CC3)cc(OCCC#N)n2)n1 [IN11030-095-P1]
+++ (+++ means <200 nM)	–	Cc1ccn(-c2cc(COC(=O)N(C)C)cc(NC3CCC(F)(F)CC3)n2)n1 [IN11039-006-P1]
++ (++ means 200 nM-1000 nM)	–	COC(=O)NCCOc1cc(NC2CCC(F)(F)CC2)nc(-c2nc(C)cs2)n1 [IN11039-009-P1]
++ (++ means 200 nM-1000 nM)	–	COCCN(C)Cc1cc(NC2CCC(F)(F)CC2)nc(-n2ccc(C)n2)c1 [IN11039-017-P1]
+++ (+++ means <200 nM)	–	Cc1ccn(-c2cc(COC3CCCNC3)cc(NC3CCC(F)(F)CC3)n2)n1 (centres unmarked) [IN11039-019-P1, N-(4,4-difluorocyclohexyl)-6-(3-methyl-1H-pyrazol-1-yl)-4-((piperidin-3-yloxy)methyl)pyridin-2-amine]
+ (+ means >1 uM)	–	Cc1ccn(-c2cc3ccccc3c(NC3CCC(F)(F)CC3)n2)n1 [IN11039-023-P1, N-(4,4-difluorocyclohexyl)-3-(3-methyl-1H-pyrazol-1-yl)isoquinolin-1-amine]
++ (++ means 200 nM-1000 nM)	–	CNCc1cc(NC2CCC(F)(F)CC2)nc(-n2ccc(C)n2)c1 [IN11039-026-P1]
+ (+ means >1 uM)	–	Cc1ccn(-c2cc3c(c(NC4CCC(F)(F)CC4)n2)CCCC3)n1 [IN11039-036-P1, N-(4,4-difluorocyclohexyl)-3-(3-methyl-1H-pyrazol-1-yl)-5,6,7,8-tetrahydro isoquinolin-1-amine]
++ (++ means 200 nM-1000 nM)	–	COc1nc(-c2nc(C)cs2)nc(NC2CCC(F)(F)CC2)c1F [IN11039-058-P1, N-(4,4-difluorocyclohexyl)-5-fluoro-6-methoxy-2-(4-methylthiazol-2-yl)pyrimidin-4-amine]
+++ (+++ means <200 nM)	–	Cc1ccn(-c2cc(COc3ncccc3C(C)O)cc(NC3CCC(F)(F)CC3)n2)n1 (centres unmarked) [IN11039-066-P1]
+++ (+++ means <200 nM)	–	Cc1ccn(-c2cc(COc3ncccc3C(C)(C)O)cc(NC3CCC(F)(F)CC3)n2)n1 [IN11039-069-P1]
+ (+ means >1 uM)	–	Cc1csc(-c2nc(NC3CCC(F)(F)CC3)c(O)c(=O)[nH]2)n1 [IN11039-094-P1, 6-((4,4-difluorocyclohexyl)amino)-2-(4-methylthiazol-2-yl) pyrimidine-4,5-diol]
